# Measurements reported in patent publication US20230125749A1, “COMPOSITION CONTAINING PEPTIDE OR PEPTIDE COMPOUND AS ACTIVE INGREDIENT, AND MEDICAL USE THEREFOR” (AJOU UNIVERSITY INDUSTRY-ACADEMIC COOPERATION FOUNDATION, priority 2019, published 2023).
# Test system: intraperitoneal macrophages
# Assay: Fluorescence-labeled cells among intraperitoneal macrophages after oral administration of fluorescence-conjugated peptides to normal mice
# Format: in vivo, mouse
# Details: measured after 48 and 72 hours, FIG. 10
# Protocol: Furthermore, peptides 1, 2, and 4 were orally administered to normal mice after conjugation with each different fluorescence, and the frequency of fluorescence-labeled cells was measured among intraperitoneal macrophages after 48 and 72 hours.
sequence,measurement,value
LICPEKYCNKVHT [P1],time for which the fluorescence-labeled peptide was maintained among intraperitoneal macrophages,up to 72 hours
